# Read-outs that look alike come from different tables or passages of the source.
# How the values were obtained:
# pim-1 kinase = target: T1, pim-1 kinase (Homo sapiens, UniProt P11309); assay: Pim-1 kinase radioisotope (33P-ATP) assay, Kinexus compound profiling service; assay type: biochemical; details: for pim-1 inhibition, in words: at 50 μM
# T1 construct: The kinase used was cloned, expressed and purified using proprietary methods
# Procedure: The kinase inhibitory activity of the synthesized compounds was determined using the Kinexus compound profiling service, Canada. All the compounds were tested for their inhibitory activity against pim-1 kinase at 50 μM. The kinase used was cloned, expressed and purified using proprietary methods. Quality control testing is routinely performed to ensure compliance to acceptable standards. ^33P-ATP was purchased from PerkinElmer. All other materials were of standard laboratory grade.
# The protein kinase target profiling was executed via employing a radioisotope assay format. All the assays were performed in a prepared radioactive working area. The protein kinase profiling assays were performed at room temperature for 20–30 min in a final volume of 25 μL according to the following assay reaction components: Component 1; 5 μl of diluted active protein kinase (∼10–50 nM final concentration in the assay). Component 2; 5 μl of stock solution of substrate. Component 3; 5 μl of kinase assay buffer. Component 4; 5 μl of the test compound, Staurosporine at 1 μM or 10% DMSO.
# The assay was initiated by the addition of ^33P-ATP, followed by incubation at ambient temperature for 30 min. The assay was then terminated by spotting 10 μL of the reaction mixture onto a Multiscreen phosphocellulose P81 plate. The Multiscreen phosphocellulose P81 plate was washed three times for approximately 15 min each in a 1% phosphoric acid solution. The radioactivity on the P81 plate was counted in the presence of scintillation fluid in a Trilux scintillation counter. Blank control was set up that included all the assay components except the addition of the appropriate substrate (replaced with equal volume of assay dilution buffer). The corrected activity for protein kinase target was determined by removing the blank control value.
# [1] = tested on: human breast adenocarcinoma (MCF7); assay: MTT cytotoxicity assay, MCF7; assay type: cell-based; details: for IC50: 72 h exposure, means of three experiments
# Procedure: (§1) Cancer cells from different cancer cell lines were purchased from American type Cell Culture collection (ATCC, Manassas, VA). The cell lines used in this study were human breast adenocarcinoma (MCF7), human colon adenocarcinoma (HCT116) and human prostate cancer cells (PC3). The cell lines were grown on the appropriate growth medium Dulbecco's modified Eagle's medium (DMEM) or Roswell Park Memorial Institute medium (RPMI 1640) supplemented with […] of streptomycin, 100 units/mL of penicillin and 10% of heat-inactivated fetal bovine serum in a humidified, 5% (v/v) CO2 atmosphere at 37 °C.
# (§2) Exponentially growing cells from different cancer cell lines were trypsinized, counted and seeded at the appropriate densities (2000–10 000 cells/0.33 cm^2 well) into 96-well microtiter plates. The cells were incubated in a humidified atmosphere at 37°C for 24 h. Then, the cells were exposed to different concentrations of compounds 6c, 7a, 7c, 7d, 8b and 9 (0.1, 10, 100 and 1000 μM) for 72 h. The viability of the treated cells was determined using MTT technique. The media were removed; cells were incubated with 200 μL of 5% MTT solution/well (Sigma Aldrich, St. Louis, MO) and were allowed to metabolize the dye into colored-insoluble formazan crystals for 2 h. The remaining MTT solution was discarded from the wells and the formazan crystals were dissolved in 200 μL/well-acidified isopropanol for 30 min, covered with aluminum foil and with continuous shaking using a MaxQ 2000 plate shaker (Thermo Fisher Scientific Inc, MI) at room temperature. The absorbance was measured at 570 nm using a Stat FaxR 4200 plate reader (Awareness Technology, Inc., Palm City, FL). […] The results are shown in Table 2 and represented graphically in Figure 5.
# [2] = tested on: human colon adenocarcinoma (HCT116); assay: MTT cytotoxicity assay, HCT116; assay type: cell-based; details: for IC50: 72 h exposure, means of three experiments
# Procedure: as §1, §2
# [3] = tested on: human prostate cancer cells (PC3); assay: MTT cytotoxicity assay, PC3; assay type: cell-based; details: for IC50: 72 h exposure, means of three experiments
# Procedure: as §1, §2
# pim-1 = details: cited from earlier work
# pim-2 = details: cited from earlier work
# pim-3 = details: cited from earlier work
# T1 sequence (P11309 whole entry): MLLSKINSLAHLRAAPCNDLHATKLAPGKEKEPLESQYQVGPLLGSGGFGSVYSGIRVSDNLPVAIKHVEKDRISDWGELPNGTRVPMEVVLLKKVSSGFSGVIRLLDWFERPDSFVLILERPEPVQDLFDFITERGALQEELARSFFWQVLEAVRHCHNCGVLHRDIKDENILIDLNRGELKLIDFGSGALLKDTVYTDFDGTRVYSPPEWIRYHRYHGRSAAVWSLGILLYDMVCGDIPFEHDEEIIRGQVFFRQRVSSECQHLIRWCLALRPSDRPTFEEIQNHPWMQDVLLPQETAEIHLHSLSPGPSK
structure (smiles),measurement,setting,value
"CCOC(=O)Cc1nc2c(sc3nc(C)c(Br)c(C)c32)c(=O)[nH]1 [Compound 10, Ethyl (8-bromo-7,9-dimethyl-4-oxo-3,4-dihydropyrido[3',2':4,5]thieno[3,2-d]pyrimidin-2-yl)acetate]","pim-1 inhibition, in words",pim-1 kinase,poor
same,inhibition at 50 µM,pim-1 kinase; test compounds at 50 μM,31%
same,melting point,,277 to 278 °C
"Cc1nc2sc3c(c2c(C)c1Br)NC(c1ccccc1O)NC3=O (stereo not shown) [Compound 7c, 8-Bromo-2-(2-hydroxyphenyl)-7,9-dimethyl-2,3-dihydropyrido[3',2':4,5]thieno[3,2-d]pyrimidin-4(1H)-one]",IC50,pim-1 kinase,1.38 ± 0.025 µM
same,inhibition at 50 µM,pim-1 kinase; test compounds at 50 μM,93%
same,"cytotoxic activity on MCF7, in words",[1],moderate
same,IC50,"[1]; Homo sapiens, MCF7, 72 h",59.6 ± 1.2 µM
same,"cytotoxic activity on HCT116, in words",[2],moderate
same,IC50,"[2]; Homo sapiens, HCT-116, 72 h",181 ± 5.03 µM
same,"cytotoxic activity on PC3, in words",[3],moderate
same,IC50,"[3]; Homo sapiens, 72 h",58.2 ± 3.48 µM
CN(C)Cc1nc2c(sc3ccc(-c4ccc(O)cc4)cc32)c(=O)[nH]1 [VI],Ki,pim-1; Figure 3,2 nM
same,Ki,pim-2; Figure 3,3 nM
same,Ki,pim-3; Figure 3,0.0005 µM
"Cc1nc2sc3c(=O)[nH]c(-c4ccccc4Cl)nc3c2c(C)c1Br [Compound 6a, 8-Bromo-2-(2-chlorophenyl)-7,9-dimethylpyrido[3',2':4,5]thieno[3,2-d]pyrimidin-4(3H)-one]",IC50,pim-1 kinase,> 100 µM
same,inhibition at 50 µM,pim-1 kinase; test compounds at 50 μM,36%
same,melting point,,> 300 °C
"Cc1nc2sc3c(c2c(C)c1Br)NC(c1ccccc1F)NC3=O (stereo not shown) [Compound 7b, 8-Bromo-2-(2-fluorophenyl)-7,9-dimethyl-2,3-dihydropyrido[3',2':4,5]thieno[3,2-d]pyrimidin-4(1H)-one]","pim-1 inhibition, in words",pim-1 kinase,moderate
same,inhibition at 50 µM,pim-1 kinase; test compounds at 50 μM,66%
same,melting point,,292 to 293 °C
"CN[C@@H]1C[C@H]2O[C@@](C)([C@@H]1OC)n1c3ccccc3c3c4c(c5c6ccccc6n2c5c31)C(=O)NC4 [Staurosporine, reference compound]",inhibition at 1 µM,pim-1 kinase; read-out: % Inhibition of pim-1 kinase,93%
"Cc1nc2c(sc3nc(C)c(Br)c(C)c32)c(=O)[nH]1 [Compound 8a, 8-Bromo-2,7,9-trimethylpyrido[3',2':4,5]thieno[3,2–d]pyrimidin-4(3H)-one]","pim-1 inhibition, in words",pim-1 kinase,moderate
same,inhibition at 50 µM,pim-1 kinase; test compounds at 50 μM,51%
same,melting point,,> 300 °C
"CCc1nc2c(sc3nc(C)c(Br)c(C)c32)c(=O)[nH]1 [Compound 8c, 8-Bromo-2-ethyl-7,9-dimethylpyrido[3',2':4,5]thieno[3,2-d]pyrimidin-4(3H)-one]",inhibition at 50 µM,pim-1 kinase; test compounds at 50 μM,23%
same,% Inhibition of pim-1 kinase,"pim-1 kinase; test compounds at 50 μM, 50 µM",17%
same,melting point,,> 300 °C
"Cc1nc2sc3c(c2c(C)c1Br)NC(c1ccccc1C(F)(F)F)NC3=O (stereo not shown) [Compound 7d, 8-Bromo-7,9-dimethyl-2-[2-(trifluoromethyl)phenyl]-2,3-dihydropyrido[3',2':4,5]thieno[3,2-d]pyrimidin-4(1H)-one]",IC50,pim-1 kinase,1.97 ± 0.022 µM
same,inhibition at 50 µM,pim-1 kinase; test compounds at 50 μM,98%
same,IC50,[1],30.2 ± 0.8 µM
same,IC50,"[1]; Homo sapiens, MCF7, 72 h",18 to 38 µM
same,IC50,[2],30 ± 0.55 µM
same,IC50,"[2]; Homo sapiens, HCT-116, 72 h",18 to 38 µM
"Cc1nc2sc3c(=O)[nH]c(-c4ccccc4O)nc3c2c(C)c1Br [Compound 6c, 8-Bromo-2-(2-hydroxyphenyl)-7,9-dimethylpyrido[3',2':4,5]thieno[3,2-d]pyrimidin-4(3H)-one]",IC50,pim-1 kinase,4.62 ± 0.039 µM
same,inhibition at 50 µM,pim-1 kinase; test compounds at 50 μM,85%
same,"cytotoxic activity on MCF7, in words",[1],moderate
same,IC50,"[1]; Homo sapiens, MCF7, 72 h",35.5 ± 1.3 µM
same,"cytotoxic activity on HCT116, in words",[2],moderate
same,IC50,"[2]; Homo sapiens, HCT-116, 72 h",63.3 ± 4.5 µM
same,"cytotoxic activity on PC3, in words",[3],moderate
same,IC50,"[3]; Homo sapiens, 72 h",60.1 ± 4.65 µM
"Cc1nc2sc3c(=O)[nH]c(C(F)(F)F)nc3c2c(C)c1Br [Compound 8b, 8-Bromo-7,9-dimethyl-2-(trifluoromethyl)pyrido[3',2':4,5]thieno[3,2-d]pyrimidin-4(3H)-one]",IC50,pim-1 kinase,8.83 ± 0.028 µM
same,inhibition at 50 µM,pim-1 kinase; test compounds at 50 μM,96%
same,"cytotoxic activity on MCF7, in words",[1],potent
same,IC50,"[1]; Homo sapiens, MCF7, 72 h",28.6 ± 1 µM
same,"cytotoxic activity on HCT116, in words",[2],potent
same,IC50,"[2]; Homo sapiens, HCT-116, 72 h",23.5 ± 0.53 µM
same,"cytotoxic activity on PC3, in words",[3],moderate
same,IC50,"[3]; Homo sapiens, 72 h",59.9 ± 2.48 µM
NC1CCN(c2ccncc2NC(=O)c2ccc(F)c(-c3c(F)cccc3F)n2)CC1O (stereo not shown) [LGB321],Ki,pim-1; Figure 1,0.001 nM
same,Ki,pim-2; Figure 1,0.0021 nM
"Cc1nc2sc3c(=O)[nH]cnc3c2c(C)c1Br [Compound 5, 8-bromo-7,9-dimethylpyrido[3′,2′:4,5]thieno[3,2-d]pyrimidin-4(3H)-one]",inhibition at 50 µM,pim-1 kinase; test compounds at 50 μM,37%
CC(C)(O)[C@H]1CC[C@H](Nc2ccc3ncc(-c4cccc(C(F)(F)F)c4)n3n2)CC1 [SGI-9481],Ki,pim-1; Figure 1,5 nM
same,Ki,pim-2; Figure 1,239 nM
same,Ki,pim-3; Figure 1,0.042 µM
O=c1[nH]c(CNc2cccc(O)c2)nc2c1sc1ccc(Br)cc12 [VII],Ki,pim-1; Figure 3,0.8 nM
same,Ki,pim-2; Figure 3,60 nM
same,Ki,pim-3; Figure 3,0.004 µM
COc1ccc(N2CCN(C(=O)c3sc4nc(C)c(Br)c(C)c4c3N)CC2)cc1 [V],IC50,"pim-1; Figure 2, earlier thieno[2,3-b]pyridine",12.7 µM
"Cc1nc2sc3c(=O)[nH]c(-c4ccccc4C(F)(F)F)nc3c2c(C)c1Br [Compound 6d, 8-Bromo-7,9-dimethyl-2-[2-(trifluoromethyl)phenyl]pyrido[3',2':4,5]thieno[3,2-d]pyrimidin-4(3H)-one]","pim-1 inhibition, in words",pim-1 kinase,moderate
same,inhibition at 50 µM,pim-1 kinase; test compounds at 50 μM,54%
same,melting point,,255 to 256 °C
"CC(=O)Cc1nc2c(sc3nc(C)c(Br)c(C)c32)c(=O)[nH]1 [Compound 9, 8-Bromo-7,9-dimethyl-2-(2-oxopropyl)pyrido[3',2':4,5]thieno[3,2-d]pyrimidin-4(3H)-one]",IC50,pim-1 kinase,4.18 ± 0.076 µM
same,inhibition at 50 µM,pim-1 kinase; test compounds at 50 μM,89%
same,"cytotoxic activity on MCF7, in words",[1],weak
same,IC50,"[1]; Homo sapiens, MCF7, 72 h",123 ± 12 µM
same,"cytotoxic activity on HCT116, in words",[2],weak
same,IC50,"[2]; Homo sapiens, HCT-116, 72 h",151 ± 4.04 µM
same,"cytotoxic activity on PC3, in words",[3],weak
same,IC50,"[3]; Homo sapiens, 72 h",183 ± 12.1 µM
"Cc1nc2sc(C(N)=O)c(N)c2c(C)c1Br [Compound 4, 3-Amino-5-bromo-4,6-dimethylthieno[2,3-b]pyridine-2-carboxamide]",inhibition at 50 µM,pim-1 kinase; test compounds at 50 μM,16%
same,melting point,,260 to 261 °C
"Cc1nc2sc3c(=O)[nH]c(-c4ccccc4F)nc3c2c(C)c1Br [Compound 6b, 8-Bromo-2-(2-fluorophenyl)-7,9-dimethylpyrido[3',2':4,5]thieno[3,2-d]pyrimidin-4(3H)-one]","pim-1 inhibition, in words",pim-1 kinase,moderate
same,inhibition at 50 µM,pim-1 kinase; test compounds at 50 μM,61%
same,melting point,,295 to 296 °C
O=C(O)c1ccc2c(c1)nc(Nc1cccc(Cl)c1)c1ccncc12 [CX-4595],IC50,pim-1; Figure 1,0.048 µM
same,IC50,pim-2; Figure 1,0.186 µM
"Cc1nc2sc3c(=O)[nH]c(CC(=O)O)nc3c2c(C)c1Br [Compound 11, (8-Bromo-7,9-dimethyl-4-oxo-3,4-dihydropyrido[3',2':4,5]thieno[3,2-d]pyrimidin-2-yl)acetic acid]","pim-1 inhibition, in words",pim-1 kinase,poor
same,inhibition at 50 µM,pim-1 kinase; test compounds at 50 μM,19%
same,melting point,,> 300 °C
"Cc1nc2sc3c(c2c(C)c1Br)NC(c1ccccc1Cl)NC3=O (stereo not shown) [Compound 7a, 8-Bromo-2-(2-chlorophenyl)-7,9-dimethyl-2,3-dihydropyrido[3',2':4,5]thieno[3,2-d]pyrimidin-4(1H)-one]",IC50,pim-1 kinase,1.18 ± 0.14 µM
same,inhibition at 50 µM,pim-1 kinase; test compounds at 50 μM,81%
same,IC50,[1],23.8 ± 0.4 µM
same,IC50,"[1]; Homo sapiens, MCF7, 72 h",18 to 38 µM
same,IC50,[2],18.3 ± 0.68 µM
same,IC50,"[2]; Homo sapiens, HCT-116, 72 h",18 to 38 µM
same,IC50,[3],24.2 ± 0.91 µM
same,IC50,"[3]; Homo sapiens, 72 h",18 to 38 µM
